{"source": "patent US8937065B2", "about": "“Compositions and methods for modulating a kinase” (Clevexel Pharma, priority 2011, dated 2015)", "key": {"RS4; 11 cells": {"test_system": "RS4; 11 cells", "experiment": "Proliferation of RS4; 11 cells (Cell Titer-Glo)", "settings": "Homo sapiens, B cells, outcome-based, read-out: IC50 Proliferation RS4, 11 cells (ALL)", "experimental": "Growth inhibitory activity against the human tumor cell lines, RS4; 11 and Daudi was determined using Promega's Cell Titer-Glo® assay. The human tumor cells were placed in a 96-well microculture plate (Costar white, flat bottom #3917) in a total volume of 90 μL/well. After 24 hours of incubation in a humidified incubator at 37° C. with 5% CO2 and 95% air, […] serially diluted test agents in growth medium were added to each well. After 96 total hours of culture in a CO2 incubator, the plated cells and Cell Titer-Glo® (Promega # G7571) reagents were brought to room temperature to equilibrate for 30 minutes. 100 μL of Cell Titer-Glo® reagent was added to each well. The plate was shaken for 2 minutes and then left to equilibrate for 10 minutes before reading luminescence on the Tecan GENios microplate reader.\nPercent inhibition of cell growth was calculated relative to untreated control wells. All tests were performed in duplicate at each concentration level. The IC50 value for the test agents was estimated using Prism 3.03 by curve-fitting the data using the following four parameter-logistic equation: […]"}, "NALM-6 cells": {"test_system": "NALM-6 cells", "experiment": "Proliferation of NALM-6 cells (cell proliferation index, flow cytometry)", "settings": "Homo sapiens, B cells, outcome-based, read-out: IC50 Proliferation NALM-6 cells (ALL)", "experimental": "Cell proliferation of the human B cell precursor leukemia tumor cell line NALM-6 was measured by a cell proliferation index assay. This assay was based on the dilution rate of a fluorescent membrane marker which is directly linked to the cell division. Briefly, the assay was performed by loading the cells with a non-toxic fluorescent phospholipid analog before the seeding. The probe inserts stably into the plasmic membrane and was distributed between daughter cells after division. Flow cytometry analysis of the fluorescent probe was performed directly after the loading of the cells and after 96 hours of culture. The dilution rate of the fluorescent probe at the single cell level was directly correlated to the number of cell divisions. All experiments were performed in triplicate.\nDetection of cellular events was performed in triplicate in 96 well-plates after 72 hours of treatment by automated flow cytometry. Non-linear regressions were performed with GraphPad Prism 4.01 software.\nCells were previously thawed and amplified in standard culture conditions (37° C., 5% CO2). NALM-6 cells were cultivated in RPMI 1640+10% inactivated Fetal Bovine Serum. […]\nDay 4: After 72 hours of treatment, the cells were analyzed by automated flow cytometry."}, "Protein binding": {"experiment": "Protein binding", "format": "in vitro ADME"}, "[1]": {"experiment": "6-day maximum tolerated dose safety study in female ICR nude mice", "format": "in vivo", "experimental": "Compounds of the invention are safe for administration. For example, excellent safety data was obtained in a 6-day maximum tolerated dose study at 100 mg/kg and 300 mg/kg of compound 7A, PO administered to six to eight-week old female ICR nude mice."}, "[2]": {"settings": "100 mg/kg and 300 mg/kg PO, 6-day study, female ICR nude mice"}}, "data": [{"smiles": "O=C(CN1CCOCC1)Nc1cccc(-c2nc(-c3c[nH]c(C(=O)N4CCCC4)c3)cs2)c1", "note": "[7A, 2-morpholino-N-(3-(4-(5-(pyrrolidine-1-carbonyl)-1H-pyrrol-3-yl)thiazol-2-yl)phenyl)acetamide]", "values": [{"measurement": "IC50", "setting": "RS4; 11 cells", "result": 500, "unit": "nM"}, {"measurement": "IC50", "setting": "NALM-6 cells", "result": 480, "unit": "nM"}, {"measurement": "fraction unbound", "setting": "Protein binding", "result": 0.02}, {"measurement": "change in food consumption", "setting": "[1]; [2]", "result": "no change in food consumption"}, {"measurement": "clinical observation", "setting": "[1]; [2]", "result": "no abnormalities in clinical observation"}, {"measurement": "necropsy (internal and external)", "setting": "[1]; [2]", "result": "normal"}, {"measurement": "weight loss", "setting": "[1]; [2]", "result": "no weight loss"}, {"measurement": "Individual food consumption (g) Day 1", "setting": "[1]; PO-High 300 mg/kg", "result": 4.45, "unit": "g"}, {"measurement": "Individual food consumption (g) Day 6", "setting": "[1]; PO-High 300 mg/kg", "result": 5.13, "unit": "g"}, {"measurement": "Individual food consumption (g) Day 1", "setting": "[1]; PO-Low 100 mg/kg", "result": 4.61, "unit": "g"}, {"measurement": "Individual food consumption (g) Day 6", "setting": "[1]; PO-Low 100 mg/kg", "result": 5.44, "unit": "g"}]}]}
